Earlier results as cited in patent US12091408B2, “Store overload-induced calcium release inhibitors and methods for producing and using the same” (UTI Limited Partnership, priority 2013, dated 2024).

Experiments:
[1] = test system: β-adrenergic receptor; settings: previously shown by the inventors; cited from earlier work
[2] = test system: ventricular arrhythmias and sudden death; settings: mice, reported; via enhanced FKBP12.6 binding to RyR2; cited from earlier work

Row | SMILES | β-blockade (order of magnitude) [1] | suppression of ventricular arrhythmias and sudden death [2]
1 | COc1ccccc1OCCNCC(O)COc1cccc2[nH]c3ccccc3c12 (stereo not drawn) [Compound 1, carvedilol] | nanomolar | 
2 | COc1ccc2c(c1)CN(C)CCS2 [Compound 99, S107] |  | suppress ventricular arrhythmias and sudden death in mice
3 | COc1ccc2c(c1)CN(C(=O)CCN1CCC(Cc3ccccc3)CC1)CCS2.Cl [Compound 102, JTV519] |  | suppress ventricular arrhythmias and sudden death in mice
